# Measured values from patent US12492182B2, “Hydroxytriazine compounds and pharmaceutical use thereof” (Japan Tobacco Inc., priority 2015, dated 2025).
# How the values were obtained:
# human mPGES-1 = target: T1, human mPGES-1 (Homo sapiens, UniProt O14684); assay: Evaluation of human mPGES-1 enzyme inhibitory activity (HTRF measurement of PGE2); type: biochemical; settings: IC50 value; microsome fraction of CHO-S cells expressing human mPGES-1, PGH2 substrate, PGE2 by HTRF; read-out: humans mPGES-1 enzyme inhibitory activity
# T1 construct: made in house; host or cells: Chinese hamster ovary-derived cells (FreeStyle CHO-S), transient transfection of pcDNA3.1(+)/human mPGES-1; microsome fraction
# T1 sequence (O14684 1-152): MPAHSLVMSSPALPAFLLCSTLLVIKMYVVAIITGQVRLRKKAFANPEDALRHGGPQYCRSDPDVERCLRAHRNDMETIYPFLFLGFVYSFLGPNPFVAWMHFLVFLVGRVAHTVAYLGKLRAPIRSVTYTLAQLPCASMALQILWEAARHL
# Method: Experimental Example 1: Evaluation of Human mPGES-1 Enzyme Inhibitory Activity
# The human mPGES-1 enzyme inhibitory activity of a test article was evaluated according to the report of Xu et al. (XU, D et al. MF63 [2-(6-chloro-1H-phenanthro[9,10-d]imidazol-2-yl)-isophthalonitrile], a selective microsomal prostaglandin E synthase-1 inhibitor relieves pyresis and pain in preclinical models of inflammation. J Pharmacol Exp Ther. September 2008, Vol. 326, No. 3, pages 754-763). The amount of PGE2 produced by human mPGES-1 in the presence of a test article was measured by the HTRF (homogeneous time resolved fluorescence) method, and the human mPGES-1 enzyme inhibitory activity of the test article was determined.
# 1) Preparation of Human mPGES-1 Expressing Cell Microsome Fraction
# A DNA fragment containing human mPGES-1, which is added with a BamHI recognition cleavage sequence just before the translation initiation codon and an EcoRI recognition cleavage sequence just after the translation termination codon, was amplified by the PCR (Polymerase Chain Reaction) method using a human mPGES-1 expression plasmid DNA (pME-18S/iPGES-1) prepared in-house as a template. The purified DNA fragment was digested with BamHI and EcoRI, and ligated to pcDNA3.1(+) (Invitrogen, model number V790-20), similarly_digested with BamHI and EcoRI, by using a DNA Ligation kit ver. 2.1 (Takara Bio, model number 6022). The human mPGES-1 expression plasmid DNA was isolated from Escherichia coli DH5a (TOYOBO, model number DNA-903) transformed with the obtained ligation product. The base sequence of human mPGES-1 cloned to a vector was determined by the Dye Terminator method using BigDye Terminator v3.1 Cycle Sequencing Kit (Applied Biosystems, #4337455). The determined sequence was identical with the sequence of the protein translational region of human mPGES-1 (Accession number NM 004878) registered in the NCBI Reference Database.
# Human mPGES-1 expression plasmid DNA was transfected into Chinese hamster ovary-derived cells (FreeStyle CHO-S Cell, Invitrogen, #R^800-07) by using a transgene reagent (FreeStyle MAX Reagent (Invitrogen, #16447-100)), and cultured with shaking (8% CO2, 37° C.) in a medium containing 8 mmol/L L-glutamine (GIBCO FreeStyle CHO Expression Medium, Invitrogen, #12651-022) for 48 hr.
# The CHO-S cells were suspended in Homogenate Buffer (100 mmol/L potassium phosphate (pH 7.4), 250 mmol/L Sucrose, 100 mmol/L EDTA, complete EDTA free (Roche, #1873580)). Using an ultrasonic disruptor UD-201 (Tomy Seiko), the suspended cells were disrupted at output:3, duty cycle:50 for 30 seconds. The precipitate was removed by centrifugation (1,000×g, 5 min, 4° C.), and the supernatant was centrifuged (5,000×g, 10 min, 4° C.). The supernatant was further centrifuged (105,000×g, 60 min, 4° C.). The obtained precipitate was suspended in Resuspension Buffer (100 mmol/L potassium phosphate (pH 7.4), 250 mmol/L sucrose, 100 mmol/L EDTA, 10% glycerol) to give a microsome fraction.
# The protein concentration of the microsome fraction was measured by the Bradford method (Protein Assay Kit, Bio-Rad). The microsome fraction was rapidly frozen in liquid nitrogen and preserved at −80° C. Human mPGES-1 in the microsome fraction was detected by Western Blot using rabbit anti-mPGES-1 polyclonal antibody (ThermoFisher Scientific, #PA1-10264).
# 2) Evaluation of Human mPGES-1 Enzyme Inhibitory Activity
# A test article solution diluted with 0.1 mol/L potassium phosphate, pH 7.4 (hereinafter to be referred to as KPB) or DMSO (Nacalai Tesque, #13407-45) was added at 5 μL/well to 96 well V-bottom plate (Corning, #3363). The final DMSO concentration during the reaction was set to 2%(v/v). Furthermore, a microsome fraction of CHO-S cells expressing human mPGES-1, which was diluted with reduced GSH (12.5 mmol/L KPB solution, SIGMA, #G6529-25G) such that the protein concentration was 5 μg/mL, was added at 20 μL/well. […]
# A549 cell = assay: Evaluation of PGE2 production inhibitory action using A549 cell (IL-1β stimulated); type: cell-based, human; settings: Homo sapiens, A549, 18 h, IC50 value; A549 cell, recombinant IL-1β 1 ng/mL, 18 hr, PGE2 in supernatant; read-out: cell PGE2 production inhibitory activity
# Method: Experimental Example 2: Evaluation of PGE2 Production Inhibitory Action Using A549 Cell
# A549 cell (Japan Health Sciences Foundation Research Resources Bank), which is cell line derived from humans lung cancer, was suspended in assay medium (Ham's F-12K (Wako, #080-08565) containing 2% FBS (Hyclone Laboratories, #SH30910.03), 100 units/mL penicillin and 100 μg/mL streptomycin (Invitrogen, #15140-122)), the suspension was added at 2.5×10^4 cells/100 μL/well to 96 well flat-bottom plate (Corning, #353072), and the plate was left standing for 20 hr in a CO2 incubator set at 37° C. The test article was serially diluted with DMSO (Nacalai Tesque, #13407-45), and then 20-fold diluted with the assay medium to prepare a test article solution having a ten-fold concentration of the final concentration. The final DMSO concentration during the reaction was set to 0.5% (v/v). The medium was removed from the plate in which the cell was added, new assay medium was added at 160 μL/well to the plate, and the plate was left standing for 10 min in a CO2 incubator. Then, the test article solution was added at 20 μL/well to the plate, and the plate was left standing for 30 min in a CO2 incubator. Next, recombinant humans IL-1β (R&D Systems, #201-LB) as a stimulant to enhance PGE2 production due to increase of mPGES-1 mRNA expression was added at 20 μL/well (the final concentration was 1 ng/mL) to the plate, and the plate was left standing for 18 hr in a CO2 incubator. The supernatant was collected at 180 μL/well, and the PGE2 concentration was measured using Prostaglandin E2 assay (CISbio Bioassays, #62P2APEC) according to the manual. As the reference standard for analytical curve, PGE2 (Cayman Chemical, #14010) was used. Using EnVision 2104 (Perkin Elmer), the time-resolved fluorescence at 620 nm and 665 nm relative to the excitation light at 337 nm was measured. PGE2 concentration was extrapolated from the PGE2 analytical curve. Average of the PGE2 concentrations of the respectively-treated wells was used as the data.
# The PGE2 production inhibitory activity (%) of the test article was calculated according to the following Formula 3. PGE2 production inhibitory activity(%)=(PGE2A−PGE2X)/(PGE2A−PGE2B)×100 [Formula 3] • PGE2A: PGE2 concentration of vehicle-treated well • PGE2B: PGE2 concentration of blank well (no addition of recombinant humans IL-1B) • PGE2X: PGE2 concentration of test article-treated well
SMILES,IC50 (human mPGES-1) [nM],IC50 (A549 cell) [nM]
CCC1(C(=O)NCc2ccc(Cl)c(-c3nc(O)nc(-c4cccc(C(C)C)c4)n3)c2)CC1 [Example 8],0.7,14
CCOc1cccc(-c2nc(O)nc(-c3cc(CNC(=O)C(C)(C)C(F)(F)F)ccc3Cl)n2)c1 [Example 9],0.7,37
CCCOc1cc(C)cc(-c2nc(O)nc(-c3cc(CNC(=O)C(C)(C)C(F)(F)F)ccc3Cl)n2)c1 [Example 10],1.7,49
Cc1cc(-c2nc(O)nc(-c3cc(CNC(=O)C(C)(C)C(F)(F)F)ccc3Cl)n2)cc(C(C)(C)C)c1 [Example 11],0.2,17
COCC(C)(C)C(=O)NCc1ccc(Cl)c(-c2nc(O)nc(-c3cccc(C(C)C)c3)n2)c1 [Example 12],3.2,350
COCC1(C(=O)NCc2ccc(Cl)c(-c3nc(O)nc(-c4cccc(C(C)C)c4)n3)c2)CC1 [Example 13],21,1000
CCCCOc1ccc(-c2nc(O)nc(-c3cc(CNC(=O)C(C)(C)C(F)(F)F)ccc3Cl)n2)cn1 [Example 14],1.2,4.7
CCC(C)(CC)C(=O)NCc1ccc(Cl)c(-c2nc(O)nc(-c3cccc(C(C)C)c3)n2)c1 [Example 15],0.5,120
CC(C)c1cccc(-c2nc(O)nc(-c3cc(CNC(=O)C4(C)CCCCC4)ccc3Cl)n2)c1 [Example 16],0.4,34
CCOC(C)(C)C(=O)NCc1ccc(Cl)c(-c2nc(O)nc(-c3cccc(C(C)C)c3)n2)c1 [Example 17],67,1300
CC(C)c1cc(-c2nc(O)nc(-c3cc(CNC(=O)C(C)(C)C(F)(F)F)ccc3Cl)n2)cc(C(C)C)c1 [Example 18],5.3,260
CC(C)(C)COc1ccc(-c2nc(O)nc(-c3cc(CNC(=O)C(C)(C)C(F)(F)F)ccc3Cl)n2)cn1 [Example 19],3.3,1.7
CC(C)(C)c1cc(-c2nc(O)nc(-c3cc(CNC(=O)C(C)(C)C(F)(F)F)ccc3Cl)n2)cc(C(C)(C)C)c1 [Example 20],30,150
CCCCCOc1ccc(-c2nc(O)nc(-c3cc(CNC(=O)C(C)(C)C(F)(F)F)ccc3Cl)n2)cn1 [Example 21],3.9,2.2
